# Literature values, collected in EP0268926A2, “Safened sorptive granular pesticidal resin compositions for controlling soil borne pests and process for the preparation thereof” (priority 1986, dated 1988).
# Tested on: rats
# Conditions: technical pesticide
structure (smiles),measurement,value
"CCOP(=S)(OCC)SCSCC [phorate, O,O-diethyl-S-(ethylthiomethyl)phosphorodithioate]",acute oral LD50 value in rats,1.6-3.7 mg technical/kg
